Reference: publication PMC10714400, “Antimicrobial Peptide–Peptoid Hybrids with and without Membrane Disruption” (ACS Infectious Diseases, 2023)
In brackets after ≈: the same amount, converted by molar mass. Read-outs that look alike come from different tables or passages of the source. Where a SMILES comes first, the peptide text is derived from it. [ ]: non-standard residue; d: D form. Nlys = NCCCCNCC(=O)O

What was measured:
B. cenocepacia = conditions: pH 7.4
Method in brief: (§1)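 MIC taken visually after MTT staining (20–30 min, RT) as the lowest compound concentration preventing growth, i.e. yellow wells. Inoculum ~5 × 10^5 CFU/well in MH broth, 37 °C static for ca. 18 h; polymyxin B control started at 16 μg/mL.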

S. aureus Newman = conditions: Newman
Method in brief: as §1

P. aeruginosa PA14 = test system: P. aeruginosa PA14
Method in brief: as §1

S. epidermis = test system: S. epidermis
Method in brief: as §1

S. maltophilia = test system: S. maltophilia
Method in brief: as §1

[1] = Circular dichroism, α-helical content; format: physicochemical; conditions: 0.1 mg/mL; for CD %α with 5 mM DPC: 10 mM phosphate buffer pH 7.4, 5 mM DPC; for CD %α with 20% TFE: 10 mM phosphate buffer pH 7.4, 20% TFE
[2] = test system: human red blood cells (hRBC); experiment: Minimum hemolytic concentration (MHC); format: cell-based
Text: We also measured minimal hemolysis concentrations (MHC) on human red blood cells by serial 2-fold dilution as an indication of toxicity against eukaryotic cells (Table 1).

K. pneumoniae NCTC418 = test system: K. pneumoniae NCTC418
Method in brief: (§2)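 MTT added (20–30 min, room temperature); MIC read by eye as lowest concentration inhibiting visible growth (yellow). Polymyxin B positive control from 16 μg/mL.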

K. pneumoniae OXA-48 = test system: K. pneumoniae OXA-48
Method in brief: as §1

E. cloacae = test system: E. cloacae
Method in brief: as §1

PA14 4.18 (pmrB) = test system: PA14 4.18 (pmrB)
Method in brief: as §1

PA14 2P4 (pmrB) = test system: PA14 2P4 (pmrB)
Method in brief: as §1

P. aeruginosa PAO1 = test system: P. aeruginosa PAO1
Method in brief: as §1

[3] = test system: ZEM9A (clinical MDR P. aeruginosa isolate)
Method in brief: as §1

[4] = test system: ZEM-1A (clinical MDR P. aeruginosa isolate)
Method in brief: as §1

PA14 4.13 (phoQ) = test system: PA14 4.13 (phoQ)
Method in brief: as §1

S. aureus COL (MRSA) = test system: S. aureus COL (MRSA)
Method in brief: as §1

A. baumannii ATCC19606 = test system: A. baumannii ATCC19606
Method in brief: as §2

E. coli W3110 = test system: E. coli W3110
Method in brief: as §1

CC(C)C[C@H](NC(=O)[C@H](CC(C)C)NC(=O)[C@H](CC(C)C)NC(=O)[C@H](CCCCN)NC(=O)[C@H](CC(C)C)NC(=O)[C@H](CC(C)C)NC(=O)CN(CCCCN)C(=O)[C@H](CC(C)C)NC(=O)[C@H](CC(C)C)NC(=O)CN(CCCCN)C(=O)CNCCCCN)C(N)=O [EB6, kkLLkLLKLLL] (H-[Nlys][Nlys]LL[Nlys]LLKLLL-NH2)
MIC B. cenocepacia, full MH at pH 7.4 (B. cenocepacia; 4 h): >32 ug/mL | MIC B. cenocepacia (B. cenocepacia): >32 mg/L | MIC S. aureus Newman, full MH at pH 7.4 (S. aureus Newman; 4 h, pH 7.4): 8 ug/mL | MIC S. aureus Newman (S. aureus Newman; 4 h, pH 8.5): 2 mg/L (≈ 1.51 µM) | MIC S. aureus Newman (S. aureus Newman; pH 7.4): 8 mg/L (≈ 6.05 µM) | MIC P. aeruginosa PA14, full MH at pH 7.4 (P. aeruginosa PA14; PA14, 4 h, pH 7.4): 3 ug/mL | MIC P. aeruginosa PA14 (P. aeruginosa PA14; PA14, pH 7.4): 2 to 4 mg/L | MIC P. aeruginosa PA14 (P. aeruginosa PA14; PA14, pH 8.5): 2 mg/L (≈ 1.51 µM) | MIC S. epidermis, full MH at pH 7.4 (S. epidermis; 4 h, pH 7.4): 3 ug/mL | MIC S. epidermis (S. epidermis; 4 h, pH 8.5): 2 mg/L (≈ 1.51 µM) | MIC S. epidermis (S. epidermis; pH 7.4): 2 to 4 mg/L | MIC S. maltophilia, full MH at pH 7.4 (S. maltophilia; 4 h, pH 7.4): 3 ug/mL | MIC S. maltophilia (S. maltophilia; 4 h, pH 8.5): 2 to 4 mg/L | MIC S. maltophilia (S. maltophilia; pH 7.4): 2 to 4 mg/L | CD %α with 5 mM DPC ([1]; DichroWeb, Contin-LL): 41% | CD %α with 20% TFE ([1]; DichroWeb, Contin-LL): 35% | CD %α with 5 mM DPC ([1]; Table S2): 41% | CD %α with 20% TFE ([1]; Table S2): 35% | MHC [2]: 250 µg/mL | MHC (hemolysis) ([2]; red cells of human): 250 to 1000 µg/mL | MIC K. pneumoniae NCTC418, full MH at pH 7.4 (K. pneumoniae NCTC418; NCTC418, 4 h, pH 7.4): 8 ug/mL | MIC K. pneumoniae NCTC418, full MH at pH 8.5 (K. pneumoniae NCTC418; NCTC418, 4 h, pH 8.5): 12 ug/mL | MIC K. pneumoniae NCTC418 Full MH 8.5 (K. pneumoniae NCTC418; NCTC418, 4 h, pH 8.5): 8 to 16 mg/L | MIC K. pneumoniae NCTC418 […] 7.4 (K. pneumoniae NCTC418; Table S2, […] MH, pH 7.4): 4 mg/L (≈ 3.03 µM) | MIC K. pneumoniae NCTC418 […] 8.5 (K. pneumoniae NCTC418; Table S2, […] MH, pH 8.5): 2 mg/L (≈ 1.51 µM) | MIC K. pneumoniae NCTC418 Full MH 7.4 (K. pneumoniae NCTC418; Table S2, full MH, pH 7.4): 8 mg/L (≈ 6.05 µM) | MIC K. pneumoniae OXA-48, […] MH at pH 8.5 (K. pneumoniae OXA-48; CSV, […] MH at pH 8.5): 8 ug/mL | MIC K. pneumoniae OXA-48, full MH at pH 7.4 (K. pneumoniae OXA-48; CSV, full MH at pH 7.4): 8 ug/mL | MIC K. pneumoniae OXA-48 (K. pneumoniae OXA-48; Table S3, […] MH at pH 8.5): 8 mg/L (≈ 6.05 µM) | MIC E. cloacae, full MH at pH 7.4 (E. cloacae; 4 h, pH 7.4): 4 ug/mL | MIC E. cloacae (E. cloacae; Table S3, […] MH at pH 8.5): 4 mg/L (≈ 3.03 µM) | MIC P. aeruginosa PA14 4.18, […] MH at pH 8.5 (PA14 4.18 (pmrB); CSV, […] MH at pH 8.5): 2 ug/mL | MIC P. aeruginosa PA14 4.18, full MH at pH 7.4 (PA14 4.18 (pmrB); CSV, full MH at pH 7.4): 16 ug/mL | MIC PA14 4.18 (pmrB) (PA14 4.18 (pmrB); MH pH 7.4, 16–20 h at 37 °C): 16 mg/L (≈ 12.1 µM) | MIC P. aeruginosa PA14 4.18 (PA14 4.18 (pmrB); Table S3, […] MH at pH 8.5): 2 mg/L (≈ 1.51 µM) | MIC P. aeruginosa PA14 2P4, […] MH at pH 8.5 (PA14 2P4 (pmrB); CSV, […] MH at pH 8.5): 2 ug/mL | MIC P. aeruginosa PA14 2P4, full MH at pH 7.4 (PA14 2P4 (pmrB); CSV, full MH at pH 7.4): 32 ug/mL | MIC PA14 2P4 (pmrB) (PA14 2P4 (pmrB); MH pH 7.4, 16–20 h at 37 °C): 32 mg/L (≈ 24.2 µM) | MIC P. aeruginosa PA14 2P4 (PA14 2P4 (pmrB); Table S3, […] MH at pH 8.5): 2 mg/L (≈ 1.51 µM) | MIC P. aeruginosa PAO1, full MH at pH 7.4 (P. aeruginosa PAO1; PAO1, 4 h, pH 7.4): 4 ug/mL | MIC P. aeruginosa PAO1 […] 7.4 (P. aeruginosa PAO1; Table S2, […] MH, pH 7.4): 2 mg/L (≈ 1.51 µM) | MIC P. aeruginosa PAO1 […] 8.5 (P. aeruginosa PAO1; Table S2, […] MH, pH 8.5): 4 mg/L (≈ 3.03 µM) | MIC P. aeruginosa PAO1 Full MH 7.4 (P. aeruginosa PAO1; Table S2, full MH, pH 7.4): 4 mg/L (≈ 3.03 µM) | MIC P. aeruginosa PAO1 Full MH 8.5 (P. aeruginosa PAO1; Table S2, full MH, pH 8.5): 16 mg/L (≈ 12.1 µM) | MIC P. aeruginosa ZEM9A, […] MH at pH 8.5 ([3]; CSV, […] MH at pH 8.5): 2 ug/mL | MIC P. aeruginosa ZEM9A, full MH at pH 7.4 ([3]; CSV, full MH at pH 7.4): 4 ug/mL | MIC ZEM9A ([3]; MH pH 7.4, 16–20 h at 37 °C): 4 mg/L (≈ 3.03 µM) | MIC P. aeruginosa ZEM9A ([3]; Table S3, […] MH at pH 8.5): 2 mg/L (≈ 1.51 µM) | MIC P. aeruginosa ZEM-1A, […] MH at pH 8.5 ([4]; CSV, […] MH at pH 8.5): 3 ug/mL | MIC P. aeruginosa ZEM-1A, full MH at pH 7.4 ([4]; CSV, full MH at pH 7.4): 2 ug/mL | MIC ZEM-1A ([4]; MH pH 7.4, 16–20 h at 37 °C): 2 mg/L (≈ 1.51 µM) | MIC P. aeruginosa ZEM-1A ([4]; Table S3, […] MH at pH 8.5): 2 to 4 mg/L | MIC P. aeruginosa PA14 4.13, […] MH at pH 8.5 (PA14 4.13 (phoQ); CSV, […] MH at pH 8.5): 2 ug/mL | MIC P. aeruginosa PA14 4.13, full MH at pH 7.4 (PA14 4.13 (phoQ); CSV, full MH at pH 7.4): 4 ug/mL | MIC PA14 4.13 (phoQ) (PA14 4.13 (phoQ); MH pH 7.4, 16–20 h at 37 °C): 4 mg/L (≈ 3.03 µM) | MIC P. aeruginosa PA14 4.13 (PA14 4.13 (phoQ); Table S3, […] MH at pH 8.5): 2 mg/L (≈ 1.51 µM) | MIC S. aureus COL (MRSA), full MH at pH 7.4 (S. aureus COL (MRSA); COL, 4 h, pH 7.4): 8 ug/mL | MIC S. aureus COL (MRSA) […] 7.4 (S. aureus COL (MRSA); Table S2, […] MH, pH 7.4): 2 mg/L (≈ 1.51 µM) | MIC S. aureus COL (MRSA) […] 8.5 (S. aureus COL (MRSA); Table S2, […] MH, pH 8.5): 2 mg/L (≈ 1.51 µM) | MIC S. aureus COL (MRSA) Full MH 7.4 (S. aureus COL (MRSA); Table S2, full MH, pH 7.4): 8 mg/L (≈ 6.05 µM) | MIC S. aureus COL (MRSA) Full MH 8.5 (S. aureus COL (MRSA); Table S2, full MH, pH 8.5): 16 mg/L (≈ 12.1 µM) | MIC A. baumannii ATCC19606, full MH at pH 7.4 (A. baumannii ATCC19606; ATCC19606, 4 h, pH 7.4): 2 ug/mL | MIC A. baumannii ATCC19606 […] 7.4 (A. baumannii ATCC19606; Table S2, […] MH, pH 7.4): 2 mg/L (≈ 1.51 µM) | MIC A. baumannii ATCC19606 […] 8.5 (A. baumannii ATCC19606; Table S2, […] MH, pH 8.5): 2 mg/L (≈ 1.51 µM) | MIC A. baumannii ATCC19606 Full MH 7.4 (A. baumannii ATCC19606; Table S2, full MH, pH 7.4): 2 mg/L (≈ 1.51 µM) | MIC A. baumannii ATCC19606 Full MH 8.5 (A. baumannii ATCC19606; Table S2, full MH, pH 8.5): 8 mg/L (≈ 6.05 µM) | MIC E. coli W3110, […] MH at pH 7.4 (E. coli W3110; CSV, […] MH at pH 7.4): 2 ug/mL | MIC E. coli W3110, […] MH at pH 8.5 (E. coli W3110; CSV, […] MH at pH 8.5): 2 ug/mL | MIC E. coli W3110, full MH at pH 7.4 (E. coli W3110; CSV, full MH at pH 7.4): 2 ug/mL | MIC E. coli W3110 […] 7.4 (E. coli W3110; Table S2, […] MH, pH 7.4): 2 mg/L (≈ 1.51 µM) | MIC E. coli W3110 […] 8.5 (E. coli W3110; Table S2, […] MH, pH 8.5): 2 mg/L (≈ 1.51 µM) | MIC E. coli W3110 Full MH 7.4 (E. coli W3110; Table S2, full MH, pH 7.4): 2 mg/L (≈ 1.51 µM) | MIC E. coli W3110 Full MH 8.5 (E. coli W3110; Table S2, full MH, pH 8.5): 8 mg/L (≈ 6.05 µM) | MIC E. coli W3110 […] (E. coli W3110; diluted MH ([…] MH, pH 8.5) per Table 1 footnote b, 16–20 h at 37 °C): 2 mg/L (≈ 1.51 µM)
